Test results as given in PubChem BioAssay AID330 (DTP/NCI, 2004).
Several values for one entry are separate records, joined by “and”; a condition that tells them apart may be missing. Identical values can stand only once. Toxic doses and inconclusive results are not listed. Rule for the calls: active = survival T/C of 150% or more; inactive = T/C below 125% in these data.

System: P388 leukemia ip, CD2F1 mice, survival T/C
Assay: NCI In Vivo Anticancer Drug Screen. Data for tumor model P388 Leukemia (intraperitoneal) in CD2F1 (CDF1) mice
Conditions: endpoint: median survival time, higher = longer survival
Procedure, shortened: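 Mice carrying the transplanted tumor received test compound or vehicle. Survival was recorded in each group, and the value is the treated-group measurement divided by that of the vehicle-treated control group.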

[1] = dose: 25.0 mg/kg/injection, schedule: Q01DX009 (ip), vehicle: saline with Tween-80
[2] = dose: 50.0 mg/kg/injection, schedule: Q01DX009 (ip), vehicle: saline with Tween-80
[3] = dose: 100.0 mg/kg/injection, schedule: Q01DX009 (ip), vehicle: saline with Tween-80
[4] = dose: 100.0 mg/kg/injection, schedule: Q04DX003 (ip), vehicle: saline with Tween-80
[5] = dose: 200.0 mg/kg/injection, schedule: Q04DX003 (ip), vehicle: saline with Tween-80
[6] = dose: 200.0 mg/kg/injection, schedule: Q04DX003 (ip), vehicle: saline
[7] = dose: 400.0 mg/kg/injection, schedule: Q04DX003 (ip), vehicle: saline
[8] = dose: 25.0 mg/kg/injection, schedule: Q01DX009 (ip), vehicle: Klucel (hydroxypropylcellulose) (HPC)
[9] = dose: 50.0 mg/kg/injection, schedule: Q01DX009 (ip), vehicle: Klucel (hydroxypropylcellulose) (HPC)
[10] = dose: 100.0 mg/kg/injection, schedule: Q01DX009 (ip), vehicle: Klucel (hydroxypropylcellulose) (HPC)
[11] = dose: 200.0 mg/kg/injection, schedule: Q01DX009 (ip), vehicle: Klucel (hydroxypropylcellulose) (HPC)
[12] = dose: 50.0 mg/kg/injection, schedule: Q01DX009 (ip), vehicle: saline
[13] = dose: 50.0 mg/kg/injection, schedule: Q01DX005 (ip), vehicle: saline with Tween-80
[14] = dose: 100.0 mg/kg/injection, schedule: Q01DX005 (ip), vehicle: saline with Tween-80
[15] = dose: 200.0 mg/kg/injection, schedule: Q01DX005 (ip), vehicle: saline with Tween-80

Measured: T/C

O=C1C(Cl)OC(c2ccccc2)=NN1c1ccccc1 (stereo unspecified)
inactive: dose: 50.0 mg/kg/injection, schedule: Q01DX005 (ip), vehicle: distilled water + alcohol 97 % of control | dose: 100.0 mg/kg/injection, schedule: Q01DX005 (ip), vehicle: distilled water + alcohol 107 % of control | dose: 200.0 mg/kg/injection, schedule: Q01DX005 (ip), vehicle: distilled water + alcohol 97 % of control

CC(C)=CCN1C(=O)c2ccccc2C1=O
inactive: [1] 109 % of control | [2] 109 % of control | [3] 104 % of control | dose: 100.0 mg/kg/injection, schedule: Q01DX009 (ip), vehicle: saline 94 % of control | dose: 100.0 mg/kg/injection, schedule: Q01DX009 (ip), vehicle: suspension in saline 98 % of control and 91 % of control | dose: 200.0 mg/kg/injection, schedule: Q01DX009 (ip), vehicle: saline 102 % of control | dose: 200.0 mg/kg/injection, schedule: Q01DX009 (ip), vehicle: suspension in saline 100 % of control and 103 % of control | dose: 400.0 mg/kg/injection, schedule: Q01DX009 (ip), vehicle: saline 120 % of control | dose: 400.0 mg/kg/injection, schedule: Q01DX009 (ip), vehicle: suspension in saline 110 % of control and 91 % of control

COc1ccc(-c2nc(SCC(=O)O)n(-c3ccccn3)c2-c2ccc(OC)cc2)cc1
inactive: dose: 100.0 mg/kg/injection, schedule: Q01DX001 (ip), vehicle: water 100 % of control | dose: 200.0 mg/kg/injection, schedule: Q01DX001 (ip), vehicle: water 91 % of control

CCOC(=O)c1[nH]cnc1/N=N/N(C)CCO
inactive: [4] 109 % of control | [5] 113 % of control | dose: 400.0 mg/kg/injection, schedule: Q04DX003 (ip), vehicle: saline with Tween-80 118 % of control

NNC(=O)CC(N)=O
inactive: dose: 12.5 mg/kg/injection, schedule: Q04DX003 (ip), vehicle: saline 95 % of control | dose: 25.0 mg/kg/injection, schedule: Q04DX003 (ip), vehicle: saline 95 % of control | dose: 50.0 mg/kg/injection, schedule: Q04DX003 (ip), vehicle: saline 96 % of control | [6] 104 % of control | [7] 100 % of control

Cc1cc(C)cc(C(C)(C)C)c1
inactive: [4] 100 % of control | [5] 100 % of control

Cc1cnc(C)n2ncnc12
inactive: dose: 100.0 mg/kg/injection, schedule: Q04DX003 (ip), vehicle: saline 93 % of control | [6] 95 % of control | [7] 88 % of control

CCS(=O)(=O)c1ncnc2nc[nH]c12
inactive: dose: 50.0 mg/kg/injection, schedule: Q01DX005 (ip), vehicle: Klucel (hydroxypropylcellulose) (HPC) 100 % of control | dose: 100.0 mg/kg/injection, schedule: Q01DX005 (ip), vehicle: Klucel (hydroxypropylcellulose) (HPC) 102 % of control | dose: 200.0 mg/kg/injection, schedule: Q01DX005 (ip), vehicle: Klucel (hydroxypropylcellulose) (HPC) 100 % of control

COC1NC(=O)Oc2c(F)cccc21 (stereo unspecified)
inactive: dose: 12.5 mg/kg/injection, schedule: Q01DX009 (ip), vehicle: Klucel (hydroxypropylcellulose) (HPC) 100 % of control | [8] 95 % of control | [9] 99 % of control | [10] 95 % of control | [11] 104 % of control

COC(=O)COc1cc2c(cc1C(C)c1ccc(OCc3ccccc3)cc1)OCO2 (stereo unspecified)
inactive: dose: 50.0 mg/kg/injection, schedule: Q01DX005 (ip), vehicle: distilled water + Tween-80 89 % of control | dose: 100.0 mg/kg/injection, schedule: Q01DX005 (ip), vehicle: distilled water + Tween-80 99 % of control | dose: 200.0 mg/kg/injection, schedule: Q01DX005 (ip), vehicle: distilled water + Tween-80 106 % of control and 88 % of control

c1ccc2[s+]csc2c1
inactive: dose: 6.25 mg/kg/injection, schedule: Q01DX009 (ip), vehicle: distilled water + Tween-80 102 % of control | dose: 12.5 mg/kg/injection, schedule: Q01DX009 (ip), vehicle: distilled water + Tween-80 92 % of control | dose: 25.0 mg/kg/injection, schedule: Q01DX009 (ip), vehicle: distilled water + Tween-80 107 % of control | dose: 50.0 mg/kg/injection, schedule: Q01DX009 (ip), vehicle: distilled water + Tween-80 108 % of control | dose: 100.0 mg/kg/injection, schedule: Q01DX009 (ip), vehicle: distilled water + Tween-80 93 % of control

CO[n+]1ccccc1Cc1ccccc1
inactive: dose: 6.25 mg/kg/injection, schedule: Q01DX009 (ip), vehicle: saline 118 % of control | dose: 12.5 mg/kg/injection, schedule: Q01DX009 (ip), vehicle: saline 112 % of control and 119 % of control | dose: 25.0 mg/kg/injection, schedule: Q01DX009 (ip), vehicle: saline 111 % of control | [12] 119 % of control

CSc1nc2[nH]ncc2c(=O)[nH]1
inactive: [8] 101 % of control | [9] 99 % of control | [10] 93 % of control | [11] 86 % of control

c1c[nH]cn1
inactive: [12] 97 % of control

CC(CN1CCCCC1)C(=O)c1ccc(-c2ccccc2)cc1 (stereo unspecified)
inactive: [1] 100 % of control | [2] 105 % of control | [3] 100 % of control

Cc1cc(=O)[nH]c(N/N=C/c2ccc(O)cc2)n1
inactive: dose: 18.75 mg/kg/injection, schedule: Q04DX003 (ip), vehicle: saline sonified 90 % of control | dose: 37.5 mg/kg/injection, schedule: Q04DX003 (ip), vehicle: saline sonified 86 % of control | dose: 75.0 mg/kg/injection, schedule: Q04DX003 (ip), vehicle: saline sonified 104 % of control

CC1CC2(CC(COc3ccccc3C(N)=O)OC2=O)C(=O)O1 (stereo unspecified)
inactive: [13] 100 % of control | [14] 100 % of control | [15] 97 % of control

COC(=O)C1(C2CCc3cc(OC)ccc3C2=O)NC(=S)NC(=O)C1C#N (stereo unspecified)
inactive: dose: 7.5 mg/kg/injection, schedule: Q01DX005 (ip), vehicle: saline with Tween-80 96 % of control | dose: 15.0 mg/kg/injection, schedule: Q01DX005 (ip), vehicle: saline with Tween-80 97 % of control | dose: 30.0 mg/kg/injection, schedule: Q01DX005 (ip), vehicle: saline with Tween-80 93 % of control

O=C1CCC(c2nc3ccccc3[nH]2)N1Cc1ccc(Cl)cc1 (stereo unspecified)
inactive: dose: 60.0 mg/kg/injection, schedule: Q01DX005 (ip), vehicle: saline with Tween-80 108 % of control | dose: 120.0 mg/kg/injection, schedule: Q01DX005 (ip), vehicle: saline with Tween-80 90 % of control | dose: 240.0 mg/kg/injection, schedule: Q01DX005 (ip), vehicle: saline with Tween-80 86 % of control

O=[N+]([O-])c1ccc(N2c3ccccc3SC23CCCC3)c([N+](=O)[O-])c1
inactive: [13] 100 % of control | [14] 100 % of control | [15] 99 % of control

CC(=O)c1cn[nH]c1NC(=O)c1ccccc1
inactive: dose: 8.75 mg/kg/injection, schedule: Q01DX005 (ip), vehicle: Klucel (hydroxypropylcellulose) (HPC) 103 % of control | dose: 17.5 mg/kg/injection, schedule: Q01DX005 (ip), vehicle: Klucel (hydroxypropylcellulose) (HPC) 103 % of control | dose: 35.0 mg/kg/injection, schedule: Q01DX005 (ip), vehicle: Klucel (hydroxypropylcellulose) (HPC) 95 % of control

C#CC(C)(C)NC(=O)NC12CC3CC(CC(C3)C1)C2
inactive: dose: 12.5 mg/kg/injection, schedule: Q01DX001 (ip), vehicle: saline with Tween-80 94 % of control | dose: 25.0 mg/kg/injection, schedule: Q01DX001 (ip), vehicle: saline with Tween-80 86 % of control | dose: 50.0 mg/kg/injection, schedule: Q01DX001 (ip), vehicle: saline with Tween-80 89 % of control
